{"source": "paper PMC8699473", "about": "“An Easily Expandable Multi-Drug LC-MS Assay for the Simultaneous Quantification of 57 Oral Antitumor Drugs in Human Plasma” (Cancers, 2021)", "assay": "Long-term stability in spiked pooled human plasma"}
{"smiles": "O=c1[nH]c(=O)n([C@H]2C[C@H](O)[C@@H](CO)O2)cc1C(F)(F)F", "note": "[Trifluridine]", "values": [{"measurement": "Long-term stability, 1 month, -20°C Accuracy [%]", "setting": "validation standard 2xLLOV", "value": 112.0, "unit": "%"}, {"measurement": "Long-term stability, 1 month, -80°C Accuracy [%]", "setting": "validation standard 2xLLOV", "value": 105.0, "unit": "%"}, {"measurement": "Long-term stability, 2 month, -20°C Accuracy [%]", "setting": "validation standard 2xLLOV", "value": 107.3, "unit": "%"}, {"measurement": "Long-term stability, 2 month, -80°C Accuracy [%]", "setting": "validation standard 2xLLOV", "value": 104.3, "unit": "%"}, {"measurement": "Long-term stability, 3 month, -20°C Accuracy [%]", "setting": "validation standard 2xLLOV", "value": 103.6, "unit": "%"}, {"measurement": "Long-term stability, 3 month, -80°C Accuracy [%]", "setting": "validation standard 2xLLOV", "value": 99.5, "unit": "%"}, {"measurement": "Long-term stability, 6 weeks, 4°C, without daylight Accuracy [%]", "setting": "validation standard 2xLLOV", "value": 68.8, "unit": "%"}, {"measurement": "Long-term stability, 1 month, -20°C Accuracy [%]", "setting": "validation standard LLOV", "value": 97.0, "unit": "%"}, {"measurement": "Long-term stability, 1 month, -80°C Accuracy [%]", "setting": "validation standard LLOV", "value": 95.2, "unit": "%"}, {"measurement": "Long-term stability, 2 month, -20°C Accuracy [%]", "setting": "validation standard LLOV", "value": 79.5, "unit": "%"}, {"measurement": "Long-term stability, 2 month, -80°C Accuracy [%]", "setting": "validation standard LLOV", "value": 70.3, "unit": "%"}, {"measurement": "Long-term stability, 3 month, -20°C Accuracy [%]", "setting": "validation standard LLOV", "value": 89.9, "unit": "%"}, {"measurement": "Long-term stability, 3 month, -80°C Accuracy [%]", "setting": "validation standard LLOV", "value": 85.8, "unit": "%"}, {"measurement": "Long-term stability, 6 weeks, 4°C, without daylight Accuracy [%]", "setting": "validation standard LLOV", "value": 49.1, "unit": "%"}, {"measurement": "Long-term stability, 1 month, -20°C Accuracy [%]", "setting": "validation standard MOV", "value": 99.4, "unit": "%"}, {"measurement": "Long-term stability, 1 month, -80°C Accuracy [%]", "setting": "validation standard MOV", "value": 94.6, "unit": "%"}, {"measurement": "Long-term stability, 2 month, -20°C Accuracy [%]", "setting": "validation standard MOV", "value": 109.3, "unit": "%"}, {"measurement": "Long-term stability, 2 month, -80°C Accuracy [%]", "setting": "validation standard MOV", "value": 104.7, "unit": "%"}, {"measurement": "Long-term stability, 3 month, -20°C Accuracy [%]", "setting": "validation standard MOV", "value": 92.2, "unit": "%"}, {"measurement": "Long-term stability, 3 month, -80°C Accuracy [%]", "setting": "validation standard MOV", "value": 90.8, "unit": "%"}, {"measurement": "Long-term stability, 6 weeks, 4°C, without daylight Accuracy [%]", "setting": "validation standard MOV", "value": 59.0, "unit": "%"}, {"measurement": "Long-term stability, 1 month, -20°C Accuracy [%]", "setting": "validation standard ULOV", "value": 93.7, "unit": "%"}, {"measurement": "Long-term stability, 1 month, -80°C Accuracy [%]", "setting": "validation standard ULOV", "value": 88.8, "unit": "%"}, {"measurement": "Long-term stability, 2 month, -20°C Accuracy [%]", "setting": "validation standard ULOV", "value": 98.4, "unit": "%"}, {"measurement": "Long-term stability, 2 month, -80°C Accuracy [%]", "setting": "validation standard ULOV", "value": 95.5, "unit": "%"}, {"measurement": "Long-term stability, 3 month, -20°C Accuracy [%]", "setting": "validation standard ULOV", "value": 82.1, "unit": "%"}, {"measurement": "Long-term stability, 3 month, -80°C Accuracy [%]", "setting": "validation standard ULOV", "value": 79.9, "unit": "%"}, {"measurement": "Long-term stability, 6 weeks, 4°C, without daylight Accuracy [%]", "setting": "validation standard ULOV", "value": 27.1, "unit": "%"}]}
{"smiles": "CCCS(=O)(=O)Nc1ccc(F)c(C(=O)c2c[nH]c3ncc(-c4ccc(Cl)cc4)cc23)c1F", "note": "[Vemurafenib]", "values": [{"measurement": "Long-term stability, 1 month, -20°C Accuracy [%]", "setting": "validation standard 2xLLOV", "value": 102.1, "unit": "%"}, {"measurement": "Long-term stability, 1 month, -80°C Accuracy [%]", "setting": "validation standard 2xLLOV", "value": 105.7, "unit": "%"}, {"measurement": "Long-term stability, 2 month, -20°C Accuracy [%]", "setting": "validation standard 2xLLOV", "value": 110.6, "unit": "%"}, {"measurement": "Long-term stability, 2 month, -80°C Accuracy [%]", "setting": "validation standard 2xLLOV", "value": 108.1, "unit": "%"}, {"measurement": "Long-term stability, 3 month, -20°C Accuracy [%]", "setting": "validation standard 2xLLOV", "value": 97.3, "unit": "%"}, {"measurement": "Long-term stability, 3 month, -80°C Accuracy [%]", "setting": "validation standard 2xLLOV", "value": 105.9, "unit": "%"}, {"measurement": "Long-term stability, 6 weeks, 4°C, without daylight Accuracy [%]", "setting": "validation standard 2xLLOV", "value": 86.3, "unit": "%"}, {"measurement": "Long-term stability, 1 month, -20°C Accuracy [%]", "setting": "validation standard LLOV", "value": 105.8, "unit": "%"}, {"measurement": "Long-term stability, 1 month, -80°C Accuracy [%]", "setting": "validation standard LLOV", "value": 101.6, "unit": "%"}, {"measurement": "Long-term stability, 2 month, -20°C Accuracy [%]", "setting": "validation standard LLOV", "value": 104.5, "unit": "%"}, {"measurement": "Long-term stability, 2 month, -80°C Accuracy [%]", "setting": "validation standard LLOV", "value": 98.7, "unit": "%"}, {"measurement": "Long-term stability, 3 month, -20°C Accuracy [%]", "setting": "validation standard LLOV", "value": 106.2, "unit": "%"}, {"measurement": "Long-term stability, 3 month, -80°C Accuracy [%]", "setting": "validation standard LLOV", "value": 114.9, "unit": "%"}, {"measurement": "Long-term stability, 6 weeks, 4°C, without daylight Accuracy [%]", "setting": "validation standard LLOV", "value": 85.9, "unit": "%"}, {"measurement": "Long-term stability, 1 month, -20°C Accuracy [%]", "setting": "validation standard MOV", "value": 104.9, "unit": "%"}, {"measurement": "Long-term stability, 1 month, -80°C Accuracy [%]", "setting": "validation standard MOV", "value": 106.7, "unit": "%"}, {"measurement": "Long-term stability, 2 month, -20°C Accuracy [%]", "setting": "validation standard MOV", "value": 116.1, "unit": "%"}, {"measurement": "Long-term stability, 2 month, -80°C Accuracy [%]", "setting": "validation standard MOV", "value": 119.1, "unit": "%"}, {"measurement": "Long-term stability, 3 month, -20°C Accuracy [%]", "setting": "validation standard MOV", "value": 92.9, "unit": "%"}, {"measurement": "Long-term stability, 3 month, -80°C Accuracy [%]", "setting": "validation standard MOV", "value": 96.8, "unit": "%"}, {"measurement": "Long-term stability, 6 weeks, 4°C, without daylight Accuracy [%]", "setting": "validation standard MOV", "value": 97.8, "unit": "%"}, {"measurement": "Long-term stability, 1 month, -20°C Accuracy [%]", "setting": "validation standard ULOV", "value": 104.7, "unit": "%"}, {"measurement": "Long-term stability, 1 month, -80°C Accuracy [%]", "setting": "validation standard ULOV", "value": 101.7, "unit": "%"}, {"measurement": "Long-term stability, 2 month, -20°C Accuracy [%]", "setting": "validation standard ULOV", "value": 119.0, "unit": "%"}, {"measurement": "Long-term stability, 2 month, -80°C Accuracy [%]", "setting": "validation standard ULOV", "value": 112.7, "unit": "%"}, {"measurement": "Long-term stability, 3 month, -20°C Accuracy [%]", "setting": "validation standard ULOV", "value": 89.5, "unit": "%"}, {"measurement": "Long-term stability, 3 month, -80°C Accuracy [%]", "setting": "validation standard ULOV", "value": 100.8, "unit": "%"}, {"measurement": "Long-term stability, 6 weeks, 4°C, without daylight Accuracy [%]", "setting": "validation standard ULOV", "value": 94.4, "unit": "%"}]}
{"smiles": "CC1(C)CCC(CN2CCN(c3ccc(C(=O)NS(=O)(=O)c4ccc(NCC5CCOCC5)c([N+](=O)[O-])c4)c(Oc4cnc5[nH]ccc5c4)c3)CC2)=C(c2ccc(Cl)cc2)C1", "note": "[Venetoclax]", "values": [{"measurement": "Long-term stability, 1 month, -20°C Accuracy [%]", "setting": "validation standard 2xLLOV", "value": 102.9, "unit": "%"}, {"measurement": "Long-term stability, 1 month, -80°C Accuracy [%]", "setting": "validation standard 2xLLOV", "value": 104.0, "unit": "%"}, {"measurement": "Long-term stability, 2 month, -20°C Accuracy [%]", "setting": "validation standard 2xLLOV", "value": 104.9, "unit": "%"}, {"measurement": "Long-term stability, 2 month, -80°C Accuracy [%]", "setting": "validation standard 2xLLOV", "value": 111.9, "unit": "%"}, {"measurement": "Long-term stability, 3 month, -20°C Accuracy [%]", "setting": "validation standard 2xLLOV", "value": 85.1, "unit": "%"}, {"measurement": "Long-term stability, 3 month, -80°C Accuracy [%]", "setting": "validation standard 2xLLOV", "value": 101.9, "unit": "%"}, {"measurement": "Long-term stability, 6 weeks, 4°C, without daylight Accuracy [%]", "setting": "validation standard 2xLLOV", "value": 99.8, "unit": "%"}, {"measurement": "Long-term stability, 1 month, -20°C Accuracy [%]", "setting": "validation standard LLOV", "value": 111.0, "unit": "%"}, {"measurement": "Long-term stability, 1 month, -80°C Accuracy [%]", "setting": "validation standard LLOV", "value": 109.1, "unit": "%"}, {"measurement": "Long-term stability, 2 month, -20°C Accuracy [%]", "setting": "validation standard LLOV", "value": 105.5, "unit": "%"}, {"measurement": "Long-term stability, 2 month, -80°C Accuracy [%]", "setting": "validation standard LLOV", "value": 115.7, "unit": "%"}, {"measurement": "Long-term stability, 3 month, -20°C Accuracy [%]", "setting": "validation standard LLOV", "value": 101.9, "unit": "%"}, {"measurement": "Long-term stability, 3 month, -80°C Accuracy [%]", "setting": "validation standard LLOV", "value": 99.3, "unit": "%"}, {"measurement": "Long-term stability, 6 weeks, 4°C, without daylight Accuracy [%]", "setting": "validation standard LLOV", "value": 92.7, "unit": "%"}, {"measurement": "Long-term stability, 1 month, -20°C Accuracy [%]", "setting": "validation standard MOV", "value": 99.9, "unit": "%"}, {"measurement": "Long-term stability, 1 month, -80°C Accuracy [%]", "setting": "validation standard MOV", "value": 103.6, "unit": "%"}, {"measurement": "Long-term stability, 2 month, -20°C Accuracy [%]", "setting": "validation standard MOV", "value": 109.3, "unit": "%"}, {"measurement": "Long-term stability, 2 month, -80°C Accuracy [%]", "setting": "validation standard MOV", "value": 110.0, "unit": "%"}, {"measurement": "Long-term stability, 3 month, -20°C Accuracy [%]", "setting": "validation standard MOV", "value": 100.0, "unit": "%"}, {"measurement": "Long-term stability, 3 month, -80°C Accuracy [%]", "setting": "validation standard MOV", "value": 99.6, "unit": "%"}, {"measurement": "Long-term stability, 6 weeks, 4°C, without daylight Accuracy [%]", "setting": "validation standard MOV", "value": 99.5, "unit": "%"}, {"measurement": "Long-term stability, 1 month, -20°C Accuracy [%]", "setting": "validation standard ULOV", "value": 108.0, "unit": "%"}, {"measurement": "Long-term stability, 1 month, -80°C Accuracy [%]", "setting": "validation standard ULOV", "value": 102.7, "unit": "%"}, {"measurement": "Long-term stability, 2 month, -20°C Accuracy [%]", "setting": "validation standard ULOV", "value": 112.4, "unit": "%"}, {"measurement": "Long-term stability, 2 month, -80°C Accuracy [%]", "setting": "validation standard ULOV", "value": 114.0, "unit": "%"}, {"measurement": "Long-term stability, 3 month, -20°C Accuracy [%]", "setting": "validation standard ULOV", "value": 92.9, "unit": "%"}, {"measurement": "Long-term stability, 3 month, -80°C Accuracy [%]", "setting": "validation standard ULOV", "value": 102.2, "unit": "%"}, {"measurement": "Long-term stability, 6 weeks, 4°C, without daylight Accuracy [%]", "setting": "validation standard ULOV", "value": 95.2, "unit": "%"}]}
